In article PMC13266999, “Designing Antibiotics with Inherent Resistance to Efflux as a Strategy to Revive Discovery against Multidrug-Resistant Pathogens” (Journal of Medicinal Chemistry, 2026):
Converted amounts (≈) assume the structure as drawn. Like-named read-outs stand apart in the source and are kept apart here.

Columns and labels:
E. coli [1] = test: MIC (microbroth dilution); format: cell-based; conditions: Escherichia coli
Procedure, shortened: (§1)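 Overnight stationary-phase cultures back-diluted and tested by broth microdilution with 2-fold compound series. MIC is lowest concentration with no visible growth, with OD600 also read. Separate runs included polymyxin B nonapeptide at 30 μg/mL final as outer-membrane permeabilizer.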

S. aureus [2] = test: Serial passaging, MIC of adapted strains; format: cell-based; conditions: Staphylococcus aureus
Protocol: MICs were performed on the first and 10th passage.

S. aureus [3] = test: MIC (microbroth dilution); format: cell-based, Staphylococcus aureus
Procedure, shortened: as §1

E. coli [4] = test: Mutation frequency and agar MIC; format: cell-based
Protocol: (§2) Mutation frequencies were performed on solid media at supra-inhibitory concentrations. First, the agar MIC was performed to account for any issues in solubility of compounds in solid media. Agar plates were prepared with 2-fold dilutions of compound.
(§3) For the mutation frequency assay, bacteria from an overnight culture were grown to mid exponential phase in liquid broth, then 100 μL was spread onto an agar plate containing compound at concentrations above the agar MIC. A Miles-Misra was also conducted on an antibiotic-free agar plate to determine the CFU/mL of the starting population. […] The mutation frequency was calculated by dividing the number of colonies on supra inhibitory con-centration plates by the starting population.

S. aureus [5] = test: Mutation frequency and agar MIC; format: cell-based
Protocol: as §2, §3

A. baumannii = test: Mutation frequency and agar MIC; format: cell-based; conditions: A118
Protocol: as §2, §3

[6] = biological target: T1, GyrA S84L mutant DNA gyrase (Staphylococcus aureus, UniProt P0A0K8+P20831, S84L); test: DNA gyrase supercoiling inhibition assay; format: biochemical, S. aureus; conditions: S84L mutant enzyme; read-out: IC50 (converted)
T1 construct: purchased Inspiralis Ltd. (Norwich, UK)
Procedure, shortened: (§4)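 Supercoiling of 0.5 μg relaxed […] DNA by 1U gyrase was run with compound in 1% DMSO for 30 min at 37 °C. Products were separated on 1% agarose gel and stained with ethidium bromide. Inhibition was calculated from supercoiled band intensity against a DMSO-only control.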

WT DNA gyrase = biological target: T2, WT DNA gyrase (Staphylococcus aureus, UniProt P0A0K8+P20831); test: DNA gyrase supercoiling inhibition assay; format: biochemical, S. aureus; conditions: WT enzyme; read-out: IC50 (converted)
T2 construct: purchased Inspiralis Ltd. (Norwich, UK)
Procedure, shortened: as §4

Pharmacokinetics = conditions: male, ICR (CD-1), mouse
Protocol: Pharmacokinetic studies were performed in male ICR (CD-1) mice obtained from Charles River, UK. […] Blood samples were collected from the caudal vein into anticoagulant-treated capillaries at predetermined time points up to 8 h, with terminal cardiac puncture at 8 h. Plasma samples were stored at −80 °C until analysis. […] A compound-specific LC-MS/MS method was developed for each test article using matrix-matched calibrators following protein precipitation of samples.

K. pneumoniae = test: MIC (microbroth dilution); format: cell-based, Klebsiella pneumoniae
Procedure, shortened: as §1

SMILES: C[C@H]1COc2c(N3CCN(C)CC3)c(F)cc3c(=O)c(C(=O)O)cn1c23 [Levofloxacin, (S)-9-Fluoro-3-methyl-10-(4-methylpiperazin-1-yl)-7-oxo-2,3-dihydro-7H-[1,4]oxazino[2,3,4-ij]quinoline-6-carboxylic acid, reference compound]
- MIC (E. coli [1]; 319238/UR): 8 µg/mL (≈ 22.1 µM)
- MIC (E. coli [1]; LEC006): ≤ 0.06 µg/mL
- MIC (E. coli [1]; LEC007): ≤ 0.06 µg/mL
- MIC (E. coli [1]; LEC077): 0.5 µg/mL (≈ 1.38 µM)
- MIC (E. coli [1]; LEC081): 0.5 µg/mL (≈ 1.38 µM)
- MIC (E. coli [1]; NCTC10418, NCTC 10418): ≤ 0.06 µg/mL
- MIC (E. coli [1]; NCTC11954, NCTC 11954): ≤ 0.06 µg/mL
- MIC (E. coli [1]; NCTC12241, NCTC 12241): ≤ 0.06 µg/mL
- MIC (E. coli [1]; NCTC12923, NCTC 12923): ≤ 0.016 µg/mL
- MIC (S. aureus [2]; 1199B WT): 1 µg/mL
- MIC (S. aureus [2]; 1199B adapted to 4 x MIC of Compound 7): 4 µg/mL
- MIC (S. aureus [2]; 1199B adapted to 4 x MIC of Compound 46): 2 µg/mL
- MIC (S. aureus [2]; 1199B adapted to 4 x MIC of Compound 50): 4 µg/mL
- MIC (S. aureus [2]; 1199B adapted to 4 x MIC of Compound 51): 2 µg/mL
- MIC (S. aureus [2]; 1199 WT): 0.125 µg/mL
- MIC (S. aureus [2]; 1199 adapted to 4 x MIC of Compound 7): 1 µg/mL
- MIC (S. aureus [2]; 1199 adapted to 4 x MIC of Compound 46): 0.25 µg/mL
- MIC (S. aureus [2]; 1199 adapted to 4 x MIC of Compound 50): 1 µg/mL
- MIC (S. aureus [2]; 1199 adapted to 4 x MIC of Compound 51): 0.25 µg/mL
- MIC (S. aureus [2]; NCTC13616, NCTC 13616 WT): 8 µg/mL
- MIC (S. aureus [2]; NCTC13616, NCTC 13616 adapted to 4 x MIC of Compound 7): > 32 µg/mL
- MIC (S. aureus [2]; NCTC13616, NCTC 13616 adapted to 4 x MIC of Compound 46): 16 µg/mL
- MIC (S. aureus [2]; NCTC13616, NCTC 13616 adapted to 4 x MIC of Compound 50): 16 µg/mL
- MIC (S. aureus [2]; NCTC13616, NCTC 13616 adapted to 4 x MIC of Compound 51): 32 µg/mL
- MIC (S. aureus [3]; ATCC 9144): 0.25 µg/mL (≈ 0.692 µM)
- MIC (S. aureus [3]; SA-1199): 0.25 µg/mL (≈ 0.692 µM)
- MIC (S. aureus [3]; SA-1199B (NorA-overexpressing)): 2 µg/mL (≈ 5.53 µM)
- MIC (S. aureus [3]; Staphylococcus aureus, 1199, + 4% albumin, read-out: MIC): 0.25 µg/mL
- MIC (S. aureus [3]; Staphylococcus aureus, 1199b, + 4% albumin, read-out: MIC): 2 µg/mL
- MIC (S. aureus [3]; Staphylococcus aureus, ATCC9144, ATCC 9144, + 4% albumin, read-out: MIC): 0.25 µg/mL
- MIC (S. aureus [3]; Staphylococcus aureus, ATCC9144, ATCC 9144, read-out: MIC): 0.125 µg/mL (≈ 0.346 µM)
- MIC (S. aureus [3]; Staphylococcus aureus, NCTC13277, NCTC 13277, + 4% albumin, read-out: MIC): 16 µg/mL
- MIC (S. aureus [3]; Staphylococcus aureus, NCTC13277, NCTC 13277, read-out: MIC): 16 µg/mL (≈ 44.3 µM)
- MIC (S. aureus [3]; Staphylococcus aureus, NCTC13616, NCTC 13616, + 4% albumin, read-out: MIC): 16 µg/mL
- MIC (S. aureus [3]; Staphylococcus aureus, NCTC13616, NCTC 13616, read-out: MIC): 16 µg/mL (≈ 44.3 µM)
- MIC (S. aureus [3]; Staphylococcus aureus, SA-1199, read-out: MIC): 0.125 µg/mL (≈ 0.346 µM)
- MIC (S. aureus [3]; Staphylococcus aureus, SA-1199B (NorA-overexpressing)): 1 µg/mL (≈ 2.77 µM)
- Agar MIC (E. coli [4]; NCTC 12241): 0.03 µg/mL
- Agar MIC (E. coli [4]; NCTC 12923): 0.0078 µg/mL
- Agar MIC (S. aureus [5]; ATCC 9144): 0.12 µg/mL
- Agar MIC (S. aureus [5]; NCTC 13616): 4 µg/mL
- Agar MIC (A. baumannii): 0.06 µg/mL
- IC50 [6]: 545 µM
- IC50 (WT DNA gyrase): 24.1 µM
- half-life (Pharmacokinetics; in vivo, po, 20 mg/kg): 5.7 h
- AUC(0-inf) (Pharmacokinetics; plasma, iv, 5 mg/kg): 9170 ng·h/mL
- MIC (K. pneumoniae; Klebsiella pneumoniae): 0.125 µg/mL (≈ 0.346 µM)
- MIC (K. pneumoniae; Klebsiella pneumoniae, NCTC13368, NCTC 13368, read-out: MIC): 2 µg/mL (≈ 5.53 µM)
- MIC (K. pneumoniae; TW3): 0.125 µg/mL (≈ 0.346 µM)
